{"source": "patent US6867027B1", "about": "“RNA polymerase” (The Institute of Physical and Chemical Research, priority 1997, dated 2005)", "assay_type_in_all_cases": "biochemical", "key": {"[1]": {"experiment": "Inhibition of [α-32P]UTP incorporation by 3′-dATP in the transcription reaction (3′-dNTP incorporation rate)", "settings": "compared with wild type T7 RNA polymerase", "procedure": "Ribonucleotide (NTP) and 3′-deoxynucleotide (3′-dNTP) incorporation rates of the mutant T7 RNA polymerase purified in Example 7 were measured as follows.\npBluescript(KS+) plasmid (Stratagene) linearized by reaction with a restriction endonuclease, PvuII, was used as a template for the transcription reaction, and 250 μM each of ATP, CTP, GTP, and UTP, 2 mM of spermidine-(HCl)3, 5 mM of DTT, 40 mM Tris/HCl pH 8.0, 0.1 μl of [α-^32P] UTP (3000 Ci/mmole), and 25 units of the mutant T7 RNA polymerase F644Y/L665P/F667Y were also used for the reaction. For two kinds of reaction mixture (with or without 3′-dATP, final concentration was 100 μM), the reaction was performed at 37° C. for 60 minutes. The whole reaction mixture was spotted on DE81 paper (Whatman), washed three times with phosphate buffer, and dried. The DE81 paper was placed into a scintillation vial, and radioactivity was measured using a scintillation counter (Beckman) for each reaction. Degree of inhibition of the [α-^32P] UTP incorporation was calculated by comparing the values obtained with and without 3′-dATP based on the measured radioactivity. The relative activity obtained from calculated inhibition degree and defined as a relative value to the inhibition degree of the wild type T7 RNA polymerase normalized to 1.000 was shown in Table 1.\nThe inhibition degree was calculated by using the wild type T7 RNA polymerase, T7 RNA polymerase F644Y, L665P/F667Y obtained in Example 3, mutant T7 RNA polymerase F644Y/L665P, F782Y, F733Y, F646Y or Y639F constructed and purified in the same manner as in Examples 2 and 3 for the reaction instead of the above F644Y/L665P/F667Y mutant, and relative activities are shown in Table 1.\nFor example, it is meant that the mutant T7 RNA polymerase F644Y/L665P/F667Y is 5.58 times more likely to incorporate 31-dATP in comparison with the wild type enzyme."}, "[2]": {"test_system": "plasmid vector pBluescriptKS(+) having T7 promoter", "experiment": "Sequencing reaction by the dye terminator method, linearized pBluescriptKS(+) template (Example 5)", "settings": "four dye terminators; for sequence reading: 37° C., 1 hour, ABI 377; for peak intensity in sequencing reaction: in comparison with wild type T7 RNA polymerase", "procedure": "Sequencing reaction by the dye terminator method was performed utilizing the purified mutant T7 RNA polymerases F644Y and L665P/F667Y, and the wild type T7 RNA polymerase as follows for comparison.\nFor the in vitro transcription reaction, the method of Melton, D. A. (1984, Nucleic Acids Res., 12:7035-7056) exemplified in Example 4 was used. More specifically, the reaction was performed in a total reaction volume of 10 μl containing a plasmid vector pBluescriptKS (+) having T7 promoter linearized by the reaction with a restriction endonuclease PvuII or ScaI as a template, 5-carboxyrhodamine 6G-labeled 3′-deoxyadenosine-5′-triphosphate, 5-carboxyrhodamine 110-labeled 3′-deoxyguanosine-5′-triphosphate, 5-carboxy-X-rhodamine-labeled 3′-deoxycytidine-5′-triphosphate, and 5-carboxytetramethylrhodamine-labeled 3′-deoxyuridine-5′triphosphate, which were dye terminators prepared according to the method described in W096/14434 as derivatives of 3′-DNTP, 500 μM of GTP and UTP, 250 μM of ATP and CTP, 8 mM of MgCl2, 2 mM of spermidine-(HCl)3, 5 mM of DTT, 40 mM of Tris/HCl pH 8.0 (BRL, Gibco) and 25 units of wild type T7 RNA polymerase (BRL, Gibco or Nippon Gene) or the mutant T7 RNA polymerase F644Y at 37° C. for 1 hour. Then, to remove the unreacted dye terminators remained in the reaction product, the transcription product was purified by gel filtration using Sephadex G-50 column (Pharmacia Biotec), and the purification product was evaporated to dryness using a centrifugal evaporator.\n(§1) The dried reaction product was dissolved in 6 μl of formamide/EDTA/Blue dextran loading buffer according to the instruction manual Ver. 1.0 of ABI PRISM 377 DNA Sequencing System available from Perkin-Elmer Japan, and 2 μl of the solution was analyzed by ABI 377 DNA Sequencer and an analysis program using denatured gel for sequencing analysis which contained 6M urea/4% Long Ranger™ acrylamide solution (FMC)."}, "[3]": {"experiment": "In vitro transcription with a single dye terminator, sequence ladder analysed on ABI 377 (Example 4)", "settings": "for incorporation efficiency for 3′-dCTP derivatives / peak intensities of the sequence ladders: compared with wild type; for peak intensities of the sequence ladders: FIG. 14 and FIG. 15", "procedure": "3′ -DNTP incorporation efficiency of the purified mutant T7 RNA polymerases F644Y and L665P/F667Y was compared with that of wild type T7 RNA polymerase as follows. In vitro transcription reaction was performed by, for example, a partially modified version of the method of Melton, D. A, [Nucleic Acids Res., 12:7035-7056 (1984)]. More specifically, the reaction was performed in a total volume of 10 μl containing a plasmid vector pBluescriptKS(+) having T7 promoter (Stratagene) linearized by the reaction with a restriction endonuclease PvuII or ScaI as a template, 150 μM of 5-carboxy-X-rhodamine-labeled 3′-deoxycytidine-5′-triphosphate which was a dye terminator prepared according to the method described in WO96/14434 as a derivative of 3′-dNTP, 500 μM of GTP and UTP, 250 μM of ATP and CTP, 8 mM Of MgCl2, 2 mM of spermidine-(HCl)3, 5 mM of DTT, 40 mM of Tris/HCl pH 8.0 (BRL, Gibco) and 25 units of wild type T7 RNA polymerase (BRL, Gibco or Nippon Gene) or the mutant T7 RNA polymerase F644Y or L665P/F667Y at 37° C. for 1 hour. Then, to remove the unreacted dye terminator remained in the reaction product, the transcription product was purified by gel filtration using Sephadex G-50 column (Pharmacia Biotec), and the purification product was evaporated to dryness using a centrifugal evaporator.\nas §1\nThe peak intensities of the sequence ladders obtained by using F644Y and L665P/F667Y are shown in FIG. 14 and FIG. 15 with the peak intensity obtained by using wild type T7 RNA polymerase."}, "[4]": {"test_system": "DNA containing T7 promoter", "experiment": "In vitro RNA synthesis activity (enzyme dilution method, plasmid containing T7 promoter as template)", "settings": "compared with wild type T7 RNA polymerase", "source_text": "The T7 RNA polymerases introduced with mutations were purified, and their abilities of promoter sequence specific RNA synthesis and incorporation of ribonucleoside 5′-triphosphates including ATP, GTP, CTP, UTP and derivatives thereof, as well as 3′-dATP, 3′-dGTP, 3′-dCTP, 3′-dUTP and derivatives thereof were compared with those of wild type T7 RNA polymerase.\nAll of the mutant T7 RNA polymerases can be purified by principally the same method. The difference of mutation site may cause some difference in the expression level, and behavior in column chromatography. The purification method of mutant T7 RNA polymerase F644Y is exemplified hereinafter. The expression vector pT7RF644Y for F644Y was introduced into E. coli DH5∝, and the cells were cultured in a test tube containing LB culture medium containing antibiotic ampicillin. When the OD (600 nm) of the medium reached 0.4-0.6, isopropyl-β-thiogalactopyranoside (IPTG) was added to the culture to a final concentration of 0.4 mM, and the cultivation was further continued for additional 8 hours. Then, the E. coli cells were collected by centrifugation. Typically, 2 liters of culture medium affords 10 g of E. coli cells in wet weight. If the E. coli cells are not used immediately, they can be stored in a refrigerator at −20° C. Subsequent steps for purification of enzyme should be performed at a temperature lower than room temperature, preferably 0-5° C. unless otherwise indicated. The E. coli cells were washed with 10 times relative to the cell weight of a washing buffer (20 mM Tris-HCl, pH 8.1, 130 mM NaCl, 2 mM EDTANa2 at 25° C.), centrifuged again [5,000×g, 4° C., 10 minutes), suspended in 10 times in volume of a sonication buffer (50 mM Tris-HCl, pH 8.1, 100 mM NaCl, 0.1 mM EDTANa2, 5 mM dithiothreitol (DTT), 0.1 mM benzamidine, 30 μg/ml phenylmethylsulfonyl fluoride (PMSF), 10 μg/ml bacitracin], and sonicated by using Sonifier 450 (Branson) at 80W for more than 15 minutes to destroy the cells and reduce the viscosity of the cells. […]"}}}
{"substance": "F644Y/F667Y: mutant T7 RNA polymerase with F644Y and F667Y mutations", "values": [{"measurement": "ability for incorporating 3′-dATP, 3′-dGTP, 3′-dCTP, 3′-dUTP and derivatives thereof", "setting": "[1]", "result": "almost equal to that of the F644Y/L665P/F667Y mutant"}]}
{"substance": "F644Y: T7 RNA polymerase in which F (phenylalanine) 644 was replaced with Y (tyrosine)", "values": [{"measurement": "ability for incorporating 3′-dATP, 3′-dGTP, 3′-dCTP, 3′-dUTP and derivatives thereof", "setting": "[1]", "result": "markedly improved"}, {"measurement": "sequence reading", "setting": "[2]", "result": "possible"}, {"measurement": "peak intensity in sequencing reaction", "setting": "[2]", "result": "higher peak intensity with less fluctuation"}, {"measurement": "length of transcription product confirmed", "setting": "[3]; 150 μM dye terminator, 37° C., 1 hour", "result": "about 700 bases"}, {"measurement": "length of sequence ladder relative to that afforded by the wild type T7 RNA polymerase", "setting": "[3]; 150 μM dye terminator, 37° C., 1 hour, gel image FIG. 13", "result": 3, "unit": "times"}, {"measurement": "incorporation efficiency for 3′-dCTP derivatives", "setting": "[3]", "result": "improved"}, {"measurement": "peak intensities of the sequence ladders", "setting": "[3]", "result": "less fluctuation in comparison with the wild type, and the peak showed stronger signals"}]}
{"substance": "F667Y: T7 RNA polymerase in which F667 was replaced with Y", "values": [{"measurement": "ability for incorporating 3′-dATP, 3′-dGTP, 3′-dCTP, 3′-dUTP and derivatives thereof", "setting": "[1]", "result": "comparable to that of the L665P/F667Y mutant"}]}
{"substance": "F733Y: T7 RNA polymerase in which F733 was replaced with Y", "values": [{"measurement": "RNA synthesis activity", "setting": "[4]", "result": "slightly decreased"}, {"measurement": "ability for incorporating 3′-dATP, 3′-dGTP, 3′-dCTP, 3′-dUTP and derivatives thereof", "setting": "[1]", "result": "slightly improved"}]}
{"substance": "F782Y: T7 RNA polymerase in which F782 was replaced with Y", "values": [{"measurement": "ability for incorporating 3′-dATP, 3′-dGTP, 3′-dCTP, 3′-dUTP and derivatives thereof", "setting": "[1]", "result": "slightly improved"}]}
{"substance": "F882Y: T7 RNA polymerase in which F882 was replaced with Y", "values": [{"measurement": "RNA synthesis activity", "setting": "[4]", "result": "markedly decreased"}]}
{"substance": "L665P/F667Y: mutant T7 RNA polymerase with L665P and F667Y mutations", "values": [{"measurement": "ability for incorporating 3′-dATP, 3′-dGTP, 3′-dCTP, 3′-dUTP and derivatives thereof", "setting": "[1]", "result": "markedly improved"}, {"measurement": "sequence reading", "setting": "[2]", "result": "possible"}, {"measurement": "peak intensity in sequencing reaction", "setting": "[2]", "result": "higher peak intensity with less fluctuation"}, {"measurement": "incorporation efficiency for 3′-dCTP derivatives", "setting": "[3]", "result": "improved"}, {"measurement": "peak intensities of the sequence ladders", "setting": "[3]", "result": "less fluctuation in comparison with the wild type, and the peak showed stronger signals"}]}
{"substance": "Wild type: wild type T7 RNA polymerase, 883 amino acid residues, purified from E. coli harboring pT7R or commercially available [reference compound]", "values": [{"measurement": "RNA synthesis activity", "setting": "[4]", "result": "exhibited sufficient RNA synthesis activity"}, {"measurement": "sequence reading", "setting": "[2]; listed as wild type T7RNA polymerase (WT)", "result": "could not be correctly performed"}]}
